We go through six compounds from the NIST ThermoML archive (doi:10.1016/j.fluid.2005.06.022).

For data set [1] the following is noted: Liquid; for molar volume: 101.33 kPa.
Data set [2] is described as follows: refractive index (Na D-line) (dimensionless). As to conditions: 101.33 kPa, Liquid, Standard Abbe refractometry.

± gives the expanded uncertainty stated by the source.

Take `O=C1CCCCC1` [cyclohexanone]: the molar volume in data set [1] (293.15 K) worked out at 0.0001038 ± 5.7e-07 m3/mol. Further, the “vapor or sublimation pressure” value in data set [1] (426.35 K) and in data set [1] (426.85 K) was 94.7 ± 4.8 kPa in each case. In addition, the refractive index (as a rule, a measure of how strongly the sample bends light) in data set [2] (293.15 K) worked out at 1.451 ± 0.0012.
In the case of `N#Cc1cnccn1` [2-cyanopyrazine], in data set [1] (293.15 K), the molar volume was 8.952e-05 ± 5.2e-07 m3/mol. Also, the vapor or sublimation pressure (as a rule, the equilibrium pressure above the liquid or solid) in data set [1] (476.05 K) amounted to 94.7 ± 4.8 kPa. For the same compound, the refractive index in data set [2] (293.15 K) was found to be 1.534 ± 0.0012.
Turning to `C=CC#N` [acrylonitrile], the molar volume in data set [1] (298.15 K) is 6.629e-05 ± 3.6e-07 m3/mol. Besides, the “vapor or sublimation pressure” value in data set [1] (348.55 K) stood at 94.7 ± 4.8 kPa. Also, the refractive index in data set [2] (298.15 K) was determined as 1.3888 ± 0.0012.
On to `ClC(Cl)(Cl)Cl` [tetrachloromethane], for which the molar volume in data set [1] (298.15 K) is recorded as 9.708e-05 ± 6e-07 m3/mol. For the same compound, the “vapor or sublimation pressure” value in data set [1] (347.85 K) is 94.7 ± 4.8 kPa. For the same compound, the refractive index in data set [2] (298.15 K) came out at 1.4574 ± 0.0012.
Turning to `C1CCCCC1` [cyclohexane], the molar volume in data set [1] (298.15 K) stood at 0.0001087 ± 5.9e-07 m3/mol. Moreover, the “vapor or sublimation pressure” value in data set [1] (351.85 K) was 94.7 ± 4.8 kPa. In addition, the refractive index in data set [2] (298.15 K) is reported as 1.4235 ± 0.0012.
As to `Cc1cnccn1` [2-methylpyrazine], the molar volume in data set [1] (293.15 K) came out at 9.138e-05 ± 5.1e-07 m3/mol. The “vapor or sublimation pressure” value in data set [1] (396.65 K) was 94.7 ± 4.8 kPa. Further, the refractive index in data set [2] (293.15 K) is recorded as 1.505 ± 0.0012.
